Laboratory results as given in ChEMBL document CHEMBL1201862, “PubChem BioAssay data set” (2004).
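Cells were grown in 96-well plates and exposed to each compound for 48 hours at five concentrations; endpoints were interpolated linearly between bracketing concentrations, or set to the highest concentration if not reached. GI50 = concentration required for 50% inhibition of growth.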 Active and inactive are the calls of the source. Rule as the data show it: active = GI50 up to about 1.1 µM and inactive = higher.

Key:
Assay in all cases: inhibition of tumour cell growth, NCI panel, 48 h
[1] = test system: 786-0
[2] = test system: A498
[3] = test system: A549
[4] = test system: ACHN
[5] = test system: BT-549
[6] = test system: CAKI-1
[7] = test system: CCRF-CEM
[8] = test system: COLO 205
[9] = test system: DU-145
[10] = test system: EKVX
[11] = test system: HCC 2998
[12] = test system: HCT-116
[13] = test system: HCT-15
[14] = test system: HL-60
[15] = test system: HOP-62
[16] = test system: HOP-92
[17] = test system: HT-29
[18] = test system: Hs-578T
[19] = test system: IGROV-1
[20] = test system: K562
[21] = test system: KM12
[22] = test system: LOX IMVI
[23] = test system: M14
[24] = test system: MCF7
[25] = test system: MDA-MB-231
[26] = test system: MDA-MB-435
[27] = test system: MDA-N
[28] = test system: MOLT-4
[29] = test system: NCI-H226
[30] = test system: NCI-H23
[31] = test system: NCI-H460
[32] = test system: NCI-H522
[33] = test system: NCI/ADR-RES
[34] = test system: OVCAR-3
[35] = test system: OVCAR-4
[36] = test system: OVCAR-5
[37] = test system: OVCAR-8
[38] = test system: PC-3
[39] = test system: RPMI-8226
[40] = test system: RXF 393
[41] = test system: SF-268
[42] = test system: SF-295
[43] = test system: SF-539
[44] = test system: SK-MEL-28
[45] = test system: SK-MEL-2
[46] = test system: SK-MEL-5
[47] = test system: SK-OV-3
[48] = test system: SN12C
[49] = test system: SNB-19
[50] = test system: SNB-75
[51] = test system: SR
[52] = test system: SW-620
[53] = test system: T47D
[54] = test system: TK-10
[55] = test system: U-251
[56] = test system: UACC-257
[57] = test system: UACC-62
[58] = test system: UO-31
[59] = test system: Malme-3M

With `C[C@@H]1CCC2[C@@H](C)[C@@H](O[C@H]3O[C@@H]4O[C@@]5(C)CCC6[C@H](C)CCC([C@H]3C)[C@]64OO5)O[C@@H]3O[C@@]4(C)CCC1[C@@]23OO4` (stereo not given in full) as the molecule, how does the GI50 [1] read?
Its GI50 is 21.9 µM (inactive).

And the GI50 [2]?
Its GI50 is > 25 µM (inactive).

What about the GI50 [3] of the same molecule?
The GI50 was 18.6 µM (inactive).

What about the GI50 [4] of the same molecule?
Its GI50 is 3.27 µM (inactive).

And the GI50 [5]?
Its GI50 is 1.23 µM (inactive).

And the GI50 [6]?
The GI50 was > 25 µM (inactive).

And the GI50 [7]?
The GI50 was 7.46 µM (inactive).

What about the GI50 [8] of the same molecule?
The GI50 was 1.17 µM (inactive).

And the GI50 [9]?
The GI50 was > 25 µM (inactive).

And the GI50 [10]?
The GI50 was 2.07 µM (inactive).

What about the GI50 [11] of the same molecule?
Its GI50 is > 25 µM (inactive).

What about the GI50 [12] of the same molecule?
The GI50 was 0.659 µM (active).

What about the GI50 [13] of the same molecule?
The GI50 was 0.733 µM.

And the GI50 [14]?
The GI50 was 0.5 µM (active).

What about the GI50 [15] of the same molecule?
The GI50 was > 25 µM (inactive).

What about the GI50 [16] of the same molecule?
Its GI50 is 3.63 µM (inactive).

What about the GI50 [17] of the same molecule?
Its GI50 is 1.31 µM (inactive).

What about the GI50 [18] of the same molecule?
The GI50 was 7.05 µM (inactive).

What about the GI50 [19] of the same molecule?
The GI50 was > 25 µM (inactive).

And the GI50 [20]?
The GI50 was 1.04 µM (active).

And the GI50 [21]?
The GI50 was 0.865 µM (active).

And the GI50 [22]?
Its GI50 is 0.973 µM (active).

What about the GI50 [23] of the same molecule?
Its GI50 is > 25 µM (inactive).

And the GI50 [24]?
Its GI50 is 1.51 µM (inactive).

And the GI50 [25]?
The GI50 was > 25 µM (inactive).

What about the GI50 [26] of the same molecule?
Its GI50 is 6.97 µM (inactive).

And the GI50 [27]?
The GI50 was 2.65 µM (inactive).

And the GI50 [28]?
The GI50 was 2.17 µM (inactive).

What about the GI50 [29] of the same molecule?
Its GI50 is > 15.6 µM (inactive).

What about the GI50 [30] of the same molecule?
Its GI50 is 1.1 µM (active).

What about the GI50 [31] of the same molecule?
Its GI50 is > 25 µM (inactive).

What about the GI50 [32] of the same molecule?
The GI50 was 0.861 µM (active).

And the GI50 [33]?
Its GI50 is 1.45 µM (inactive).

What about the GI50 [34] of the same molecule?
The GI50 was 7.45 µM (inactive).

And the GI50 [35]?
Its GI50 is 7.62 µM (inactive).

And the GI50 [36]?
Its GI50 is > 25 µM (inactive).

And the GI50 [37]?
Its GI50 is 1.19 µM (inactive).

And the GI50 [38]?
Its GI50 is 0.18 µM (active).

And the GI50 [39]?
Its GI50 is 0.586 µM (active).

What about the GI50 [40] of the same molecule?
The GI50 was > 12.6 µM (inactive).

What about the GI50 [41] of the same molecule?
The GI50 was > 25 µM (inactive).

What about the GI50 [42] of the same molecule?
The GI50 was > 16.7 µM (inactive).

What about the GI50 [43] of the same molecule?
Its GI50 is > 5.51 µM (inactive).

What about the GI50 [44] of the same molecule?
Its GI50 is > 25 µM (inactive).

And the GI50 [45]?
Its GI50 is 16 µM (inactive).

What about the GI50 [46] of the same molecule?
The GI50 was 3.44 µM (inactive).

What about the GI50 [47] of the same molecule?
Its GI50 is > 25 µM (inactive).

What about the GI50 [48] of the same molecule?
The GI50 was 16.7 µM (inactive).

What about the GI50 [49] of the same molecule?
Its GI50 is > 25 µM (inactive).

What about the GI50 [50] of the same molecule?
Its GI50 is > 10.8 µM (inactive).

What about the GI50 [51] of the same molecule?
Its GI50 is 0.724 µM (active).

What about the GI50 [52] of the same molecule?
Its GI50 is 1.16 µM (inactive).

What about the GI50 [53] of the same molecule?
Its GI50 is 1.17 µM (inactive).

What about the GI50 [54] of the same molecule?
Its GI50 is > 20 µM (inactive).

What about the GI50 [55] of the same molecule?
Its GI50 is > 25 µM (inactive).

What about the GI50 [56] of the same molecule?
The GI50 was > 25 µM (inactive).

And the GI50 [57]?
Its GI50 is 1.99 µM (inactive).

What about the GI50 [58] of the same molecule?
The GI50 was 1.71 µM (inactive).

`CCOC(=O)[C@@H]1CCN2CN(c3ccc(OC)cc3)N=C(c3ccccc3)[C@@]12c1ccccc1` was tested. Which GI50 [1] did it give?
Its GI50 is 18.6 µM (inactive).

What about the GI50 [2] of the same molecule?
The GI50 was 21.6 µM (inactive).

And the GI50 [3]?
The GI50 was 29.9 µM (inactive).

What about the GI50 [4] of the same molecule?
The GI50 was 24.8 µM (inactive).

And the GI50 [5]?
The GI50 was 21.4 µM (inactive).

And the GI50 [6]?
Its GI50 is 29.6 µM (inactive).

What about the GI50 [7] of the same molecule?
The GI50 was 23.7 µM (inactive).

What about the GI50 [8] of the same molecule?
Its GI50 is 21.4 µM (inactive).

And the GI50 [9]?
The GI50 was 22.6 µM (inactive).

What about the GI50 [10] of the same molecule?
The GI50 was 29.4 µM (inactive).

And the GI50 [11]?
Its GI50 is 26.2 µM (inactive).

And the GI50 [12]?
Its GI50 is 16.7 µM (inactive).

And the GI50 [13]?
The GI50 was 23.9 µM.

What about the GI50 [14] of the same molecule?
Its GI50 is 6.7 µM (inactive).

What about the GI50 [15] of the same molecule?
The GI50 was 27.7 µM (inactive).

And the GI50 [16]?
The GI50 was 12.6 µM (inactive).

And the GI50 [17]?
The GI50 was 17.1 µM (inactive).

What about the GI50 [18] of the same molecule?
The GI50 was 23.4 µM (inactive).

What about the GI50 [19] of the same molecule?
The GI50 was 21.3 µM (inactive).

And the GI50 [20]?
The GI50 was 66.8 µM (inactive).

And the GI50 [21]?
The GI50 was 28.3 µM (inactive).

What about the GI50 [22] of the same molecule?
Its GI50 is 14.1 µM (inactive).

And the GI50 [23]?
Its GI50 is 20 µM (inactive).

And the GI50 [24]?
Its GI50 is 20.7 µM (inactive).

And the GI50 [25]?
The GI50 was 31.6 µM (inactive).

And the GI50 [26]?
The GI50 was 26.5 µM (inactive).

And the GI50 [27]?
Its GI50 is 23.2 µM (inactive).

And the GI50 [28]?
Its GI50 is 26.1 µM (inactive).

What about the GI50 [59] of the same molecule?
Its GI50 is 16.6 µM (inactive).

And the GI50 [29]?
The GI50 was 14.7 µM (inactive).

And the GI50 [30]?
The GI50 was 24.1 µM (inactive).

And the GI50 [31]?
The GI50 was 27.8 µM (inactive).

And the GI50 [32]?
Its GI50 is 17.5 µM (inactive).

What about the GI50 [33] of the same molecule?
The GI50 was 28.3 µM (inactive).

And the GI50 [35]?
The GI50 was 44 µM (inactive).

And the GI50 [36]?
The GI50 was 32.2 µM (inactive).

And the GI50 [37]?
The GI50 was 22.7 µM (inactive).

What about the GI50 [38] of the same molecule?
The GI50 was 25.5 µM (inactive).

And the GI50 [39]?
Its GI50 is 14.1 µM (inactive).

What about the GI50 [40] of the same molecule?
The GI50 was 14.7 µM (inactive).

And the GI50 [41]?
The GI50 was 28.9 µM (inactive).

And the GI50 [42]?
Its GI50 is 25.8 µM (inactive).

What about the GI50 [44] of the same molecule?
Its GI50 is 21.5 µM (inactive).

And the GI50 [45]?
The GI50 was 18.1 µM (inactive).

What about the GI50 [46] of the same molecule?
The GI50 was 13.2 µM (inactive).

And the GI50 [47]?
The GI50 was 44 µM (inactive).

And the GI50 [48]?
The GI50 was 16 µM (inactive).

What about the GI50 [49] of the same molecule?
The GI50 was 37 µM (inactive).

And the GI50 [50]?
Its GI50 is 11.5 µM (inactive).

What about the GI50 [51] of the same molecule?
Its GI50 is 23.7 µM (inactive).

And the GI50 [52]?
The GI50 was 32.1 µM (inactive).

What about the GI50 [53] of the same molecule?
The GI50 was 19.1 µM (inactive).

And the GI50 [54]?
The GI50 was 29.3 µM (inactive).

What about the GI50 [55] of the same molecule?
The GI50 was 28.9 µM (inactive).

What about the GI50 [56] of the same molecule?
Its GI50 is 19.4 µM (inactive).

What about the GI50 [57] of the same molecule?
The GI50 was 15.5 µM (inactive).

What about the GI50 [58] of the same molecule?
The GI50 was 17.8 µM (inactive).
